# Data reported in PubChem BioAssay AID196 (DTP/NCI, 2004).
# Several values for one entry are separate records, joined by “and”; a condition that tells them apart may be missing. Equal entries are not always repeated. Inconclusive results and toxic doses are left out.
# System: BDF1 mice, intracerebral B16 melanoma, median survival T/C
# Experiment: NCI In Vivo Anticancer Drug Screen. Data for tumor model B16 Melanoma (intracerebral) in B6D2F1 (BDF1) mice
# Settings: endpoint: median survival time, higher = longer survival
# Procedure: The antitumor activity of compounds was measured in mice bearing transplantable tumors. Survival or tumor size were measured and the results are expressed as the measurement made in the treated group (T) divided by the measurement made in the vehicle treated control group (C). The tumor model used in this assay is B16 Melanoma (intracerebral) in B6D2F1 (BDF1) mice
# [1] = dose: 26.7 mg/kg/injection, schedule: Q01DX001 (ip), vehicle: Klucel (hydroxypropylcellulose) (HPC)
# [2] = dose: 40.0 mg/kg/injection, schedule: Q01DX001 (ip), vehicle: Klucel (hydroxypropylcellulose) (HPC)
# [3] = dose: 60.0 mg/kg/injection, schedule: Q01DX001 (ip), vehicle: Klucel (hydroxypropylcellulose) (HPC)
# [4] = dose: 5.0 mg/kg/injection, schedule: Q01DX009 (ip), vehicle: saline
# [5] = dose: 10.0 mg/kg/injection, schedule: Q01DX009 (ip), vehicle: saline
# [6] = dose: 20.0 mg/kg/injection, schedule: Q01DX009 (ip), vehicle: saline
# [7] = dose: 40.0 mg/kg/injection, schedule: Q01DX009 (ip), vehicle: saline
# [8] = dose: 128.0 mg/kg/injection, schedule: Q01DX005 (ip), vehicle: saline
# [9] = dose: 100.0 mg/kg/injection, schedule: Q01DX005 (ip), vehicle: Klucel (hydroxypropylcellulose) (HPC)
structure (smiles),measurement,setting,value
O=NN(CCF)C(=O)NCCO,T/C,"dose: 13.0 mg/kg/injection, schedule: Q01DX001 (ip), vehicle: saline",169 % of control
same,T/C,"dose: 21.6 mg/kg/injection, schedule: Q01DX001 (ip), vehicle: saline",209 % of control
same,T/C,[1],90 % of control
same,T/C,"dose: 36.0 mg/kg/injection, schedule: Q01DX001 (ip), vehicle: saline",392 % of control
same,T/C,[2],338 % of control
same,T/C,[3],220 % of control
CC[C@H]1CN2CCc3cc(OC)c(OC)cc3[C@@H]2C[C@@H]1C[C@H]1NCCc2cc(OC)c(OC)cc21,T/C,"dose: 2.0 mg/kg/injection, schedule: Q01DX005 (ip), vehicle: Klucel (hydroxypropylcellulose) (HPC)",100 % of control and 104 % of control
same,T/C,"dose: 4.0 mg/kg/injection, schedule: Q01DX005 (ip), vehicle: Klucel (hydroxypropylcellulose) (HPC)",90 % of control and 110 % of control
same,T/C,"dose: 8.0 mg/kg/injection, schedule: Q01DX005 (ip), vehicle: Klucel (hydroxypropylcellulose) (HPC)",86 % of control and 112 % of control
O=CC(NC(=O)N(CCF)N=O)C(O)C(O)C(O)CO (stereo not drawn),T/C,[1],107 % of control
same,T/C,[2],109 % of control
same,T/C,[3],118 % of control
CCC(=O)O[C@H]1CC[C@H]2[C@@H]3CCC4=CC(=O)CC[C@]4(C)[C@H]3CC[C@]12C,T/C,"dose: 8.0 mg/kg/injection, schedule: Q01DX009 (ip), vehicle: Klucel (hydroxypropylcellulose) (HPC)",99 % of control
same,T/C,"dose: 16.0 mg/kg/injection, schedule: Q01DX009 (ip), vehicle: Klucel (hydroxypropylcellulose) (HPC)",116 % of control
same,T/C,"dose: 32.0 mg/kg/injection, schedule: Q01DX009 (ip), vehicle: Klucel (hydroxypropylcellulose) (HPC)",111 % of control
same,T/C,"dose: 64.0 mg/kg/injection, schedule: Q01DX009 (ip), vehicle: Klucel (hydroxypropylcellulose) (HPC)",99 % of control
same,T/C,"dose: 128.0 mg/kg/injection, schedule: Q01DX009 (ip), vehicle: Klucel (hydroxypropylcellulose) (HPC)",123 % of control
same,T/C,"dose: 256.0 mg/kg/injection, schedule: Q01DX009 (ip), vehicle: Klucel (hydroxypropylcellulose) (HPC)",97 % of control
same,T/C,"dose: 512.0 mg/kg/injection, schedule: Q01DX009 (ip), vehicle: Klucel (hydroxypropylcellulose) (HPC)",104 % of control
Cc1c(N)nc([C@H](CC(N)=O)NC[C@H](N)C(N)=O)nc1C(=O)N[C@H](C(=O)N[C@H](C)[C@@H](O)[C@H](C)C(=O)N[C@H](C(=O)NCCc1nc(-c2nc(C(=O)NCCC[S+](C)C)cs2)cs1)[C@@H](C)O)C(OC1OC(CO)C(O)C(O)C1OC1OC(CO)C(O)C(OC(N)=O)C1O)c1cnc[nH]1 (stereo partly drawn),T/C,"dose: 4.0 mg/kg/injection, schedule: Q01DX009 (ip), vehicle: saline",110 % of control
same,T/C,"dose: 8.0 mg/kg/injection, schedule: Q01DX009 (ip), vehicle: saline",120 % of control
same,T/C,"dose: 16.0 mg/kg/injection, schedule: Q01DX009 (ip), vehicle: saline",106 % of control
O=c1[nH]cc(F)c(=O)[nH]1,T/C,[4],104 % of control and 108 % of control
same,T/C,[5],90 % of control and 116 % of control
same,T/C,[6],104 % of control and 112 % of control
same,T/C,[7],87 % of control and 109 % of control
COS(C)(=O)=O,T/C,"dose: 16.0 mg/kg/injection, schedule: Q01DX005 (ip), vehicle: saline",89 % of control
same,T/C,"dose: 32.0 mg/kg/injection, schedule: Q01DX005 (ip), vehicle: saline",100 % of control
same,T/C,"dose: 64.0 mg/kg/injection, schedule: Q01DX005 (ip), vehicle: saline",95 % of control
same,T/C,[8],106 % of control
CC(=O)NNC(=O)c1ccccn1,T/C,[9],104 % of control and 108 % of control
same,T/C,"dose: 200.0 mg/kg/injection, schedule: Q01DX005 (ip), vehicle: Klucel (hydroxypropylcellulose) (HPC)",100 % of control
C#CCN(C)/N=N/c1nc[nH]c1C(N)=O,T/C,"dose: 16.0 mg/kg/injection, schedule: Q01DX005 (ip), vehicle: saline with Tween-80",107 % of control
same,T/C,"dose: 32.0 mg/kg/injection, schedule: Q01DX005 (ip), vehicle: saline with Tween-80",104 % of control
same,T/C,"dose: 64.0 mg/kg/injection, schedule: Q01DX005 (ip), vehicle: saline with Tween-80",110 % of control
same,T/C,"dose: 128.0 mg/kg/injection, schedule: Q01DX005 (ip), vehicle: saline with Tween-80",109 % of control
same,T/C,"dose: 256.0 mg/kg/injection, schedule: Q01DX005 (ip), vehicle: saline with Tween-80",100 % of control
COc1ccc(CC2C(=O)NC(C)C(=O)N(C)C3C(=O)N(C)C(Cc4ccc(O)c(c4)Oc4ccc(cc4)C3O)C(=O)NC(C)C(=O)NC(C)C(=O)N2C)cc1 (stereo not drawn),T/C,"dose: 0.12 mg/kg/injection, schedule: Q01DX009 (ip), vehicle: Klucel (hydroxypropylcellulose) (HPC)",97 % of control and 102 % of control
same,T/C,"dose: 0.12 mg/kg/injection, schedule: Q01DX009 (ip), vehicle: saline",93 % of control
same,T/C,"dose: 0.25 mg/kg/injection, schedule: Q01DX009 (ip), vehicle: Klucel (hydroxypropylcellulose) (HPC)",100 % of control and 108 % of control
same,T/C,"dose: 0.25 mg/kg/injection, schedule: Q01DX009 (ip), vehicle: saline",103 % of control
same,T/C,"dose: 0.5 mg/kg/injection, schedule: Q01DX009 (ip), vehicle: Klucel (hydroxypropylcellulose) (HPC)",94 % of control and 97 % of control and 100 % of control
same,T/C,"dose: 0.5 mg/kg/injection, schedule: Q01DX009 (ip), vehicle: saline",102 % of control
same,T/C,"dose: 1.0 mg/kg/injection, schedule: Q01DX009 (ip), vehicle: Klucel (hydroxypropylcellulose) (HPC)",90 % of control and 94 % of control and 100 % of control
same,T/C,"dose: 1.0 mg/kg/injection, schedule: Q01DX009 (ip), vehicle: saline",98 % of control
same,T/C,"dose: 2.0 mg/kg/injection, schedule: Q01DX009 (ip), vehicle: saline",100 % of control
CN(N=O)C(N)=O,T/C,"dose: 1.56 mg/kg/injection, schedule: Q01DX009 (ip), vehicle: saline",118 % of control
same,T/C,"dose: 6.25 mg/kg/injection, schedule: Q01DX009 (ip), vehicle: saline",112 % of control
same,T/C,"dose: 25.0 mg/kg/injection, schedule: Q01DX009 (ip), vehicle: saline",168 % of control
c1ccc([C@H]2CN3CCSC3=N2)cc1,T/C,[4],98 % of control and 105 % of control
same,T/C,"dose: 10.0 mg/kg/injection, schedule: Q01DX005 (ip), vehicle: saline",120 % of control and 93 % of control
same,T/C,[5],89 % of control and 94 % of control and 98 % of control
same,T/C,"dose: 20.0 mg/kg/injection, schedule: Q01DX005 (ip), vehicle: saline",96 % of control and 112 % of control
same,T/C,[6],87 % of control and 89 % of control and 98 % of control
same,T/C,"dose: 40.0 mg/kg/injection, schedule: Q01DX005 (ip), vehicle: saline",93 % of control and 108 % of control
same,T/C,[7],103 % of control
Nc1n[nH]c(N)n1,T/C,[8],95 % of control and 111 % of control
same,T/C,"dose: 256.0 mg/kg/injection, schedule: Q01DX005 (ip), vehicle: saline",97 % of control and 106 % of control
same,T/C,"dose: 512.0 mg/kg/injection, schedule: Q01DX005 (ip), vehicle: saline",116 % of control and 103 % of control
same,T/C,"dose: 1024.0 mg/kg/injection, schedule: Q01DX005 (ip), vehicle: saline",118 % of control and 93 % of control
Cc1ncc(CNC(=O)N(CCCl)N=O)c(N)n1,T/C,"dose: 12.5 mg/kg/injection, schedule: Q01DX009 (ip), vehicle: Klucel (hydroxypropylcellulose) (HPC)",179 % of control
same,T/C,"dose: 25.0 mg/kg/injection, schedule: Q01DX009 (ip), vehicle: Klucel (hydroxypropylcellulose) (HPC)",105 % of control
Cc1c2ccncc2c(C)c2c1[nH]c1ccccc12,T/C,[5],113 % of control
COc1cc(C[C@H]2c3cc(OC)c(OC)cc3CCN2C)c(Oc2cc3c(cc2OC)-c2c(OC)c(OC)cc4c2[C@H](C3)N(C)CC4)cc1OC,T/C,"dose: 50.0 mg/kg/injection, schedule: Q01DX005 (ip), vehicle: Klucel (hydroxypropylcellulose) (HPC)",120 % of control and 94 % of control
same,T/C,[9],108 % of control
CN(C)N=Nc1ccnc2ccc(Br)cc12,T/C,"dose: 3.12 mg/kg/injection, schedule: Q01DX009 (ip), vehicle: other",102 % of control
same,T/C,"dose: 6.25 mg/kg/injection, schedule: Q01DX009 (ip), vehicle: other",102 % of control
same,T/C,"dose: 12.5 mg/kg/injection, schedule: Q01DX009 (ip), vehicle: other",97 % of control
same,T/C,"dose: 25.0 mg/kg/injection, schedule: Q01DX009 (ip), vehicle: other",107 % of control
same,T/C,"dose: 50.0 mg/kg/injection, schedule: Q01DX009 (ip), vehicle: other",102 % of control
NC(=S)N/N=C/c1ccc(O)cn1,T/C,"dose: 12.0 mg/kg/injection, schedule: Q01DX005 (ip), vehicle: saline",96 % of control
same,T/C,"dose: 12.0 mg/kg/injection, schedule: Q01DX005 (ip), vehicle: suspension in saline",103 % of control
same,T/C,"dose: 24.0 mg/kg/injection, schedule: Q01DX005 (ip), vehicle: saline",93 % of control
same,T/C,"dose: 24.0 mg/kg/injection, schedule: Q01DX005 (ip), vehicle: suspension in saline",96 % of control
same,T/C,"dose: 48.0 mg/kg/injection, schedule: Q01DX005 (ip), vehicle: saline",100 % of control
same,T/C,"dose: 48.0 mg/kg/injection, schedule: Q01DX005 (ip), vehicle: suspension in saline",91 % of control
same,T/C,"dose: 96.0 mg/kg/injection, schedule: Q01DX005 (ip), vehicle: saline",97 % of control
same,T/C,"dose: 96.0 mg/kg/injection, schedule: Q01DX005 (ip), vehicle: suspension in saline",108 % of control
